Activity calls are given as the source filed them.
Assays:
[1] = luciferase reporter signal suppression in cells – H4 neuroglioma cells, luminescence, dose response (AID 1990); type: functional, cell-based
[2] = Luminescence Cell-Based Dose Response HTS to Identify Inhibitors of 5'UTR Stem-Loop Driven Prion Protein mRNA Translation in H4 Neuroglioblastoma Cells. [Related pubchem assays: 1827 (Project Summary), 1813 (Primary HTS)]; type: functional
[3] = alpha-synuclein stem-loop luciferase translation blockers – H4 neuroglioma cells, luminescence, confirmation (AID 1988); type: functional, cell-based
[4] = biological target: T1, Replicative DNA helicase DnaB (Mycobacterium tuberculosis, UniProt P9WMR3); assay: DnaB intein splicing inhibitors, dose response, biochemical, cell-free fluorescence (AID 449749); type: functional
T1 sequence (P9WMR3 whole entry): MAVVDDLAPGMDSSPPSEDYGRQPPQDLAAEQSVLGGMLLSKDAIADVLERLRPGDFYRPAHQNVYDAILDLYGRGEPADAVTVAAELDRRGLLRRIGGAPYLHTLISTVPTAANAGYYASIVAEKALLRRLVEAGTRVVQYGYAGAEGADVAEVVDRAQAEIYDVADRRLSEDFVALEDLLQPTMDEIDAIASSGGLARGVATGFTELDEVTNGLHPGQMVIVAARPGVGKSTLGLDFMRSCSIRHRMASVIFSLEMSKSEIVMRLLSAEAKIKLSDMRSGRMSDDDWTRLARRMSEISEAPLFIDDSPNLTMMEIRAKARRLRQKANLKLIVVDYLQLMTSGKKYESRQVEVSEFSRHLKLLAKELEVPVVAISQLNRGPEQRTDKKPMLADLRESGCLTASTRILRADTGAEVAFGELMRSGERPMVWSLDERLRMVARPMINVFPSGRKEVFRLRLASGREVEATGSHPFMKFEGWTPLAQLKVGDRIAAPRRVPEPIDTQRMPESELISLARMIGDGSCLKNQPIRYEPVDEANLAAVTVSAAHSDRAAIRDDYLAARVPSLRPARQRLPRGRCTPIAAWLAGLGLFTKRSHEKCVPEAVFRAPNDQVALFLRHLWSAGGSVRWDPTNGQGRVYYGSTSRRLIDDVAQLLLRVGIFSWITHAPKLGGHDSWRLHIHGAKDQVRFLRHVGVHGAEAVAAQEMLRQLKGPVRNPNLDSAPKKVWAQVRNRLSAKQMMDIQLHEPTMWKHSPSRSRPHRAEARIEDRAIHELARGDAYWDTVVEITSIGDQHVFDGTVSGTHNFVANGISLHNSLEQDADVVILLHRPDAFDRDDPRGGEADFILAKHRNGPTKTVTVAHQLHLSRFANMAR

Protein RecA = biological target: T2, Protein RecA (Mycobacterium tuberculosis, UniProt P9WHJ3); assay: Fluorescence Cell-Free Homogeneous Dose Retest to Identify Inhibitors of RecA-Intein Splicing Activity. [Related pubchem assays (depositor defined):AID2097, AID2223, AID489010, AID492950]; type: functional
T2 sequence (P9WHJ3 whole entry): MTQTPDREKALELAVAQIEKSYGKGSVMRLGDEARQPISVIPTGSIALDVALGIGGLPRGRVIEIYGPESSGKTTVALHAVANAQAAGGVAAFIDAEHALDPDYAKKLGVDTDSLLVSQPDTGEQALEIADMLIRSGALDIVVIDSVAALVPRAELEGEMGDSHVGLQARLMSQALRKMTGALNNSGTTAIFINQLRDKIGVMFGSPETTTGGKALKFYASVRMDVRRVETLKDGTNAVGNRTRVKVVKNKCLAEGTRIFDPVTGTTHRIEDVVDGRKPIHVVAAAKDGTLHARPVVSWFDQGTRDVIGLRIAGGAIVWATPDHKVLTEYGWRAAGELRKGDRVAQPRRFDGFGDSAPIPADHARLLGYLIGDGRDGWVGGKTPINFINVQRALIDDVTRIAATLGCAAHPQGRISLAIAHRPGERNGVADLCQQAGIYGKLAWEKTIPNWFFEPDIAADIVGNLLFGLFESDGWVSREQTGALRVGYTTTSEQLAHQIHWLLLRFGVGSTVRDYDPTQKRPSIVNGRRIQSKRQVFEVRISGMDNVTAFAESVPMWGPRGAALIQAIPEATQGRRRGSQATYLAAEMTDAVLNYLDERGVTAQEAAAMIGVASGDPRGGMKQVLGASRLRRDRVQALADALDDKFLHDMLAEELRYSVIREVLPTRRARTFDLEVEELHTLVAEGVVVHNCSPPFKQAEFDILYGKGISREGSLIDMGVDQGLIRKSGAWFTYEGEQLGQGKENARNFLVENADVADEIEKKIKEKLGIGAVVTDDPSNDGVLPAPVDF

Cytochrome P450 2D6 = Cytochrome P450 2D6 (Homo sapiens, UniProt P10635);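 note: CYP2D6 member of a cytochrome P450 panel assay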
Chain of Cytochrome P450 2D6 (P10635 whole entry): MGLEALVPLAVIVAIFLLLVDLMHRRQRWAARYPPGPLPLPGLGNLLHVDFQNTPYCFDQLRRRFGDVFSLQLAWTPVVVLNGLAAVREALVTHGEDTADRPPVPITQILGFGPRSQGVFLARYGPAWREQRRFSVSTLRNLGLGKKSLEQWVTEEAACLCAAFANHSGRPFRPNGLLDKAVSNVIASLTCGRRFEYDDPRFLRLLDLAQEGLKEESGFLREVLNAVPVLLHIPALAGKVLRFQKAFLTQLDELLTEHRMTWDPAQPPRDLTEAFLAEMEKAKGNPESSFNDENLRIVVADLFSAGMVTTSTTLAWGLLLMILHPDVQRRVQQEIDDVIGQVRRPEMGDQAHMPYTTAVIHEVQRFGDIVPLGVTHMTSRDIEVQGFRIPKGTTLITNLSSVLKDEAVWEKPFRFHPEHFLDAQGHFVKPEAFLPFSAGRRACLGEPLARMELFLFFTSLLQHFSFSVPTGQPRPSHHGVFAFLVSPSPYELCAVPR

[5] = biological target: T3, Corticotropin-releasing factor receptor 2/Corticotropin-releasing factor-binding protein (Homo sapiens, UniProt P24387+Q13324); assay: activators of CRF receptor 2 with binding protein – uHTS hits, confirmation (AID 602473); type: functional; settings: read-out: EC50_Mean
T3 sequence (Q13324 whole entry): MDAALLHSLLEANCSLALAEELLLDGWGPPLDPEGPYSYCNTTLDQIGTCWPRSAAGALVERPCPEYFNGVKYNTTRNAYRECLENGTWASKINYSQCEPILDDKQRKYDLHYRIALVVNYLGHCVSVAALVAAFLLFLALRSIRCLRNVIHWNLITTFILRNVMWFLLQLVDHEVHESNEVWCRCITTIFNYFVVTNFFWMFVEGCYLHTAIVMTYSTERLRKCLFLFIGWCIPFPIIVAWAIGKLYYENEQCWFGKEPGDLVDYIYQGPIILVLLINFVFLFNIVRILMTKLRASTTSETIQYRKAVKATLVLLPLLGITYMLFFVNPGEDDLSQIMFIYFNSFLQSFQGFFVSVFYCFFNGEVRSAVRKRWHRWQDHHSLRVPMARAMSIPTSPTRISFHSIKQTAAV
T3 sequence (P24387 whole entry): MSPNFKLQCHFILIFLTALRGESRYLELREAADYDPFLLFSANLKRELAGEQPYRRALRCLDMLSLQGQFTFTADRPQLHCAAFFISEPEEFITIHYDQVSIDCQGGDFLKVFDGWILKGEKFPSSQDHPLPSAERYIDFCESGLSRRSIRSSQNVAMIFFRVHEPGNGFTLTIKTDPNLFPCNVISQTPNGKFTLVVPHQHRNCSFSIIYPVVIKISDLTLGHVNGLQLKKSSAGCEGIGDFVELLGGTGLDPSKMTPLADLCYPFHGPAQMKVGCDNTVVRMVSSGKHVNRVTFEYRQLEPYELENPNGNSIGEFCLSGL

Cytochrome P450 2C9 = Cytochrome P450 2C9 (Homo sapiens, UniProt P11712)
Chain of Cytochrome P450 2C9 (P11712 whole entry): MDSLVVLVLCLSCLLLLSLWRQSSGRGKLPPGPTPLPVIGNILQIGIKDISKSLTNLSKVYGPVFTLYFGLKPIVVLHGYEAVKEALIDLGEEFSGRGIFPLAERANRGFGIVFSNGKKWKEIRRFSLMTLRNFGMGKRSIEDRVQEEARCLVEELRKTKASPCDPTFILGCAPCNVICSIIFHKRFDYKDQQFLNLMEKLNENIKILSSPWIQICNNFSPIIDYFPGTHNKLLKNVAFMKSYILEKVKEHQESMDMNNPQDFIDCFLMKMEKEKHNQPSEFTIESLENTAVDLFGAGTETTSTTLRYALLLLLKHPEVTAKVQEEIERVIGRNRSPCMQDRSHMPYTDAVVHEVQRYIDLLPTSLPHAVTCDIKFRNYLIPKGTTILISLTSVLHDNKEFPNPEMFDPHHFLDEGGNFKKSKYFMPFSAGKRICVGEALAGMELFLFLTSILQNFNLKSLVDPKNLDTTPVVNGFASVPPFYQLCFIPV

[6] = Luminescence Cell-Based Dose Response HTS to Identify Activators of Luciferase Translation or Activity in H4 […] Cells. [Related pubchem assays: 1829 (Project Summary), 1814 (Primary HTS)]; type: functional
[7] = biological target: Luciferin 4-monooxygenase (Photinus pyralis, UniProt P08659); assay: inhibition of purified Photinus pyralis luciferase – biochemical, luminescence, dose response (AID 1891)
Chain of Luciferin 4-monooxygenase (P08659 whole entry): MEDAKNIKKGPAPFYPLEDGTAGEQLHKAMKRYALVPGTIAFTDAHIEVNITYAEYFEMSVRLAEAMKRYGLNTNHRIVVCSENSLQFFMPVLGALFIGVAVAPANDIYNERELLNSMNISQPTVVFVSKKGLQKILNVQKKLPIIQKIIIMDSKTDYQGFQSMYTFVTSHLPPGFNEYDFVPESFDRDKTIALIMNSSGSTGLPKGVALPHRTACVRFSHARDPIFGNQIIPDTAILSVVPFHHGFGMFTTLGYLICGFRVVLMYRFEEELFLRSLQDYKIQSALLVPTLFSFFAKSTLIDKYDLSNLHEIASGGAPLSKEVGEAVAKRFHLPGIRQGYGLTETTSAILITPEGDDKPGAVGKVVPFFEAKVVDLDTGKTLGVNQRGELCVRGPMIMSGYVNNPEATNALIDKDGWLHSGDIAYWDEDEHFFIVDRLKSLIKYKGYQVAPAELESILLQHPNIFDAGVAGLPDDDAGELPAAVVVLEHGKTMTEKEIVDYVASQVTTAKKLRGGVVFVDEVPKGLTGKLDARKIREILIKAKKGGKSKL

[8] = Luminescence Cell-Based Dose Confirmation HTS to Identify Inhibitors of Platelet Dense Granule Release. [Related pubchem assays: 1663 (Primary HTS), 1678 (Summary of Project)]; type: functional
Cytochrome P450 2C19 = Cytochrome P450 2C19 (Homo sapiens, UniProt P33261); assay: Cytochrome panel assay with activity outcomes. Panel member name: p450-cyp2c19 Compounds with AC50 equal or less than 10 uM are considered active; type: functional; settings: read-out: AC50
Chain of Cytochrome P450 2C19 (P33261 whole entry): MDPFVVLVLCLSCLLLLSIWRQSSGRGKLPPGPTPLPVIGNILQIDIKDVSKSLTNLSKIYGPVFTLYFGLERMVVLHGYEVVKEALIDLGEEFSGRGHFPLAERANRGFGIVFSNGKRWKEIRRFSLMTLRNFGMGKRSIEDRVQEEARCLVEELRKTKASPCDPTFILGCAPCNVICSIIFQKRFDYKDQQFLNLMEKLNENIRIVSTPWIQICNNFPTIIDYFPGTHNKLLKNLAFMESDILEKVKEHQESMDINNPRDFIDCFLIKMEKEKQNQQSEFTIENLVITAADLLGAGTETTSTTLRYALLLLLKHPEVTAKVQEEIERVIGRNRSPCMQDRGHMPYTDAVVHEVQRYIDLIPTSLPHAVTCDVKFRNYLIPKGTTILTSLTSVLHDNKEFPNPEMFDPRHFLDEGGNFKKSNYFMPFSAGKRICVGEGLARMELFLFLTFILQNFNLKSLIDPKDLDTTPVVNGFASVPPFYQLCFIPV

Cytochrome P450 1A2 = biological target: T4, Cytochrome P450 1A2 (Homo sapiens, UniProt P05177);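 note: PubChem cytochrome P450 panel assay, CYP1A2 panel member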
T4 sequence (P05177 whole entry): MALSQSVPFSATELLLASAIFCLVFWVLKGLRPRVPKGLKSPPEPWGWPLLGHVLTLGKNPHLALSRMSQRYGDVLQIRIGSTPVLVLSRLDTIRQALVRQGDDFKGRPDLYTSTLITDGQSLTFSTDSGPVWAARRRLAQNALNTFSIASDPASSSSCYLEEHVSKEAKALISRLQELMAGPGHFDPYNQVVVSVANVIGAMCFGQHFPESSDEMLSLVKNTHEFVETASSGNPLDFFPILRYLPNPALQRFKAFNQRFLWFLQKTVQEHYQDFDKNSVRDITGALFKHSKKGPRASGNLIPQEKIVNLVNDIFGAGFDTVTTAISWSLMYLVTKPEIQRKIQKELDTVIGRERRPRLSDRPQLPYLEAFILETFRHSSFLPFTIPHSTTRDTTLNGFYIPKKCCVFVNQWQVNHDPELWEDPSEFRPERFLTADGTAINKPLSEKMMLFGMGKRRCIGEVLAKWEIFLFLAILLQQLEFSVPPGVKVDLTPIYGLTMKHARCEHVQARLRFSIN

H4 = assay: Luminescence Cell-Based Dose Response HTS to Identify Activators of 5'UTR Stem-Loop Driven Prion Protein mRNA Translation in H4 Neuroglioblastoma Cells. [Related pubchem assays: 1829 (Project Summary), 1814 (Primary HTS)]; type: functional; settings: Homo sapiens

CCCn1c(N2CCN(CC(=O)c3c(C)n(C)c4ccc(OC)cc34)CC2)nc2c1c(=O)[nH]c(=O)n2C
EC50 [1]: 18.9 µM (active) | EC50 [2]: 13.5 µM (active) | EC50 [3]: > 120 µM (not active)

CN(C)CCSc1n[nH]c2nc3ccccc3c-2n1
AC50 [4]: 7.37 µM (active) | EC50 (Protein RecA): 2.79 µM (active)

Cn1c(=O)[nH]c(=O)c2c1nc(Sc1ncccn1)n2CCCc1ccccc1
EC50 [1]: 12.3 µM (active) | EC50 [2]: 18.4 µM (active) | EC50 [3]: 83.1 µM (active)

CCCCc1nc2[nH]nc(N)c2c2c1CCCC2
EC50 [1]: 12.5 µM (active) | EC50 [2]: > 120 µM (not active) | EC50 [3]: 12 µM (active)

O=C(Nc1ccc(Br)cc1)c1ccc(F)c(S(=O)(=O)N2CCN(c3ccccn3)CC2)c1
EC50 [1]: > 120 µM (not active) | EC50 [2]: 11.5 µM (active) | EC50 [3]: > 120 µM (not active)

CCN(CC)CCn1cnc2c3c(OC)cccc3nc-2c1O
EC50 [1]: > 120 µM (not active) | EC50 [2]: > 120 µM (not active) | EC50 [3]: > 120 µM (not active)

NC(=O)c1ccccc1-c1nc(-n2ccnc2)c2ccccc2n1
AC50 (Cytochrome P450 2D6): 39.8 µM (inconclusive)

CCOC(=O)c1cc(C)sc1NC(=O)CSC1=NCCS1
AC50 [4]: 12 µM (active) | EC50 (Protein RecA): 21.4 µM (active)

COc1ccc(NC(=O)CN(C)C(=O)c2cccc(S(=O)(=O)N3CCCc4ccccc43)c2)cc1
EC50 [1]: > 120 µM (not active) | EC50 [2]: > 120 µM (not active) | EC50 [3]: 72.5 µM (active)

CCN(CC)CCN1C(=O)C(O)=C(C(C)=O)C1c1ccccc1[N+](=O)[O-] (configuration not stated)
AC50 [4]: 10 µM (active) | EC50 (Protein RecA): 3.71 µM (active)

Cn1cnc([N+](=O)[O-])c1Oc1cccc2ccccc12
AC50 [4]: 28.3 µM (active) | EC50 (Protein RecA): 13.2 µM (active)

O=S(=O)(NC1CCCC1)c1ccc(S(=O)(=O)NC2CCCC2)cc1
EC50 [5]: > 53 µM (inactive)

CCOc1ccc(NC(=O)NCCN2CCN(c3cccc(C)c3C)CC2)cc1
EC50 [1]: > 120 µM (not active) | EC50 [2]: > 120 µM (not active) | EC50 [3]: > 120 µM (not active)

CCCCOP(=O)(OCCCC)C1(NS(=O)(=O)c2ccccc2)C=CC(=O)c2ccccc21 (configuration not stated)
AC50 [4]: 4.8 µM (active) | EC50 (Protein RecA): 1.82 µM (active)

CC(C)C[C@H](NC(=O)c1nc[nH]c1C(=O)N[C@@H](CC(C)C)C(=O)OC(C)(C)C)C(=O)OC(C)(C)C
EC50 [1]: 16.8 µM (active) | EC50 [2]: 13.6 µM (active) | EC50 [3]: 8.87 µM (active)

COc1cccc(C(=O)/C=C/c2ccc(SC)cc2)c1
AC50 (Cytochrome P450 2D6): 14.1 µM (inconclusive) | AC50 (Cytochrome P450 2C9): 10 µM (inconclusive)

C[C@H]1CN(S(=O)(=O)c2cccc3cnccc23)CCN1
AC50 (Cytochrome P450 2D6): 39.8 µM (inconclusive)

COc1ccc(N2Cc3ccc(OC)c(OC)c3C2=O)cc1
EC50 [6]: 0.379 µM (active)

COc1ccc(C2NC(=O)c3[nH]nc(C)c32)c(OC)c1 (configuration not stated)
EC50 [7]: > 112 µM (not active) | EC50 [8]: 2.83 µM (active)

CCn1cc(-c2nnnn2-c2ccc(Cl)cc2)c(=O)c2ccccc21
AC50 (Cytochrome P450 2D6): 11.2 µM (inconclusive)

COCC(C)NCc1cccc([N+](=O)[O-])c1 (configuration not stated)
AC50 (Cytochrome P450 2C19): 11.2 µM (inconclusive) | AC50 (Cytochrome P450 2D6): 14.1 µM (inconclusive) | AC50 (Cytochrome P450 2C9): 0.398 µM (inconclusive)

O=C(Cn1c(C(F)(F)F)nc2ccccc21)c1ccccc1
AC50 (Cytochrome P450 2D6): 15.8 µM (inconclusive) | AC50 (Cytochrome P450 1A2): 25.1 µM (inconclusive)

CC1=CC(=O)OC2CC3OC4C[C@@H](C)C5OC6CC7O[C@]8(C)C/C=C\C9OC%10CC%11OC(CC(C)C%12OCCO%12)CC(O)[C@]%11(C)OC%10CC9OC8C[C@]7(C)O[C@]6(C)CCC5OC4C[C@]3(C)OC12 (some centres not stated)
EC50 [5]: 5.68 µM (active)

COc1cccc(/N=C2\C(Cl)=C(O)OC2OC(=O)c2ccco2)c1 (configuration not stated)
AC50 [4]: 22.3 µM (active) | EC50 (Protein RecA): 14.6 µM (active)

O=c1c(/C=N/Nc2ccccc2)c(Sc2nnnn2-c2ccccc2)nc2ccccn12
EC50 [5]: 10.1 µM (active)

COc1cc(-c2nc3ccccn3c2/N=C/c2ccccc2)ccc1O
AC50 (Cytochrome P450 2D6): 28.2 µM (inconclusive)

COc1cc(OC)cc(C(=O)Oc2ccc(/C=N/Nc3nc4ccccc4s3)cc2OC)c1
EC50 [6]: 5.84 µM (active) | EC50 (H4): 7.55 µM (active)

CC(C)c1ccc(/C=N/NC(=O)c2nnn(-c3nonc3N)c2CSC2=NCCS2)cc1
AC50 [4]: 9.47 µM (active) | EC50 (Protein RecA): 8.86 µM (active)
